Consider twelve molecules from patent US12202835B2, “Substituted aromatic ring-linked dioxinoquinazolines and dioxinoquinolines as kinase inhibitors” (BEIJING SCITECH-MQ PHARMACEUTICALS LIMITED, priority 2018, dated 2025).

The IC50 is the concentration at which inhibition is half-maximal.

In assay [1] the test system is MHCC97H cells. Put plainly: Assay for inhibiting the proliferation of MHCC97H cells (CCK-8). In kind it is cell-based. The following applies: Homo sapiens. In a few lines: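 Cells seeded in 96-well plates overnight, then exposed 72 h to 9 three-fold dilutions of compound (0.25% DMSO final). Viability by CCK-8 (1-2 h at 37° C., OD 450 nm), survival normalized to untreated and cell-free blanks; IC50 by curve fitting.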

Assay [2] has as its target VEGFR-2 kinase (Homo sapiens (Human), UniProt P35968). Put plainly: Assay of small molecular compounds for inhibiting the activity of VEGFR-2 kinase (LANCE TR-FRET). It counts as biochemical. Conditions: read-out: VEGFR2 IC50. In a few lines: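 LANCE TR-FRET with human VEGFR-2 (2× stock 0.5 nM) preincubated 30 min with compound (final 2500 to 0.042 nM, 11-point 3-fold), then ULight-JAK-1 (Tyr1023) peptide/ATP added (4× stocks 200 nM/40 μM). Reaction 60 min room temperature, 4% DMSO; IC50 from inhibition-rate curve.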
(In general: In TR-FRET formats the signal depends on donor and acceptor labels being close together.)

Assay [3] concerns the target MER kinase (Homo sapiens (Human), UniProt Q12866). As to the kind of experiment: Assay of small molecular compounds for inhibiting the activity of MER kinase (LANCE TR-FRET). In kind it is biochemical. In a few lines:
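LANCE TR-FRET readout of ULight-poly GT phosphorylation by MER kinase; compound final range 0.042-2500 nM, 3-fold steps, 5 min enzyme preincubation. Reaction 60 min at room temperature in the dark with substrate/ATP (4× at 200 nM/20 μM), 1% DMSO, then stopped and developed 60 min; IC50 by curve fit.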

SMILES strings stand for the structures.

Sequence of MER kinase (Q12866 21-999): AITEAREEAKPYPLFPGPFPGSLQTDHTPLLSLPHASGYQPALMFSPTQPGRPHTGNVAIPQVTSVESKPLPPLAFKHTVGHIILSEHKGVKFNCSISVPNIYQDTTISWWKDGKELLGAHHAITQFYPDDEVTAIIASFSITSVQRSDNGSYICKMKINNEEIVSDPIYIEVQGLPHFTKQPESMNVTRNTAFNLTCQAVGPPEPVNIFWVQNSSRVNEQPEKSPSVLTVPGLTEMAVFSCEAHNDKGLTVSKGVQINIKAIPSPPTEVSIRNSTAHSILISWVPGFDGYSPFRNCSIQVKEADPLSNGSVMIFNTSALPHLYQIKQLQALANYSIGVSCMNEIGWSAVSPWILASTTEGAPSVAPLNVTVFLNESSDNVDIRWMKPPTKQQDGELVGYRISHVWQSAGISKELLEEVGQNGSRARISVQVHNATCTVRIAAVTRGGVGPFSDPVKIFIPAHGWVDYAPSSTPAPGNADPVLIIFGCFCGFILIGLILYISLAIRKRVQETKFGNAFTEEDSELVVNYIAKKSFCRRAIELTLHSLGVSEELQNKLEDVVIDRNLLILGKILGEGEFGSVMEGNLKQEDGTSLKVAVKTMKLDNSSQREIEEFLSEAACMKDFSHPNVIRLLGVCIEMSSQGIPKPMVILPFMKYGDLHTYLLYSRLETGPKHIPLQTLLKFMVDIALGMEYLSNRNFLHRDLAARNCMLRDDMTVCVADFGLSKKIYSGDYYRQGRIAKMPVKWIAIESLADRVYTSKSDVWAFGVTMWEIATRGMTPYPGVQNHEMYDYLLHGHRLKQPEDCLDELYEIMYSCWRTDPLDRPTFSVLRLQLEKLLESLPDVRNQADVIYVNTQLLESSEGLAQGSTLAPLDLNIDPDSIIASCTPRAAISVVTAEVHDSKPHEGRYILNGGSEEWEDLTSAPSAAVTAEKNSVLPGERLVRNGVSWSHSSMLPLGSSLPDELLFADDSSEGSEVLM
Sequence of VEGFR-2 kinase (P35968 20-1356): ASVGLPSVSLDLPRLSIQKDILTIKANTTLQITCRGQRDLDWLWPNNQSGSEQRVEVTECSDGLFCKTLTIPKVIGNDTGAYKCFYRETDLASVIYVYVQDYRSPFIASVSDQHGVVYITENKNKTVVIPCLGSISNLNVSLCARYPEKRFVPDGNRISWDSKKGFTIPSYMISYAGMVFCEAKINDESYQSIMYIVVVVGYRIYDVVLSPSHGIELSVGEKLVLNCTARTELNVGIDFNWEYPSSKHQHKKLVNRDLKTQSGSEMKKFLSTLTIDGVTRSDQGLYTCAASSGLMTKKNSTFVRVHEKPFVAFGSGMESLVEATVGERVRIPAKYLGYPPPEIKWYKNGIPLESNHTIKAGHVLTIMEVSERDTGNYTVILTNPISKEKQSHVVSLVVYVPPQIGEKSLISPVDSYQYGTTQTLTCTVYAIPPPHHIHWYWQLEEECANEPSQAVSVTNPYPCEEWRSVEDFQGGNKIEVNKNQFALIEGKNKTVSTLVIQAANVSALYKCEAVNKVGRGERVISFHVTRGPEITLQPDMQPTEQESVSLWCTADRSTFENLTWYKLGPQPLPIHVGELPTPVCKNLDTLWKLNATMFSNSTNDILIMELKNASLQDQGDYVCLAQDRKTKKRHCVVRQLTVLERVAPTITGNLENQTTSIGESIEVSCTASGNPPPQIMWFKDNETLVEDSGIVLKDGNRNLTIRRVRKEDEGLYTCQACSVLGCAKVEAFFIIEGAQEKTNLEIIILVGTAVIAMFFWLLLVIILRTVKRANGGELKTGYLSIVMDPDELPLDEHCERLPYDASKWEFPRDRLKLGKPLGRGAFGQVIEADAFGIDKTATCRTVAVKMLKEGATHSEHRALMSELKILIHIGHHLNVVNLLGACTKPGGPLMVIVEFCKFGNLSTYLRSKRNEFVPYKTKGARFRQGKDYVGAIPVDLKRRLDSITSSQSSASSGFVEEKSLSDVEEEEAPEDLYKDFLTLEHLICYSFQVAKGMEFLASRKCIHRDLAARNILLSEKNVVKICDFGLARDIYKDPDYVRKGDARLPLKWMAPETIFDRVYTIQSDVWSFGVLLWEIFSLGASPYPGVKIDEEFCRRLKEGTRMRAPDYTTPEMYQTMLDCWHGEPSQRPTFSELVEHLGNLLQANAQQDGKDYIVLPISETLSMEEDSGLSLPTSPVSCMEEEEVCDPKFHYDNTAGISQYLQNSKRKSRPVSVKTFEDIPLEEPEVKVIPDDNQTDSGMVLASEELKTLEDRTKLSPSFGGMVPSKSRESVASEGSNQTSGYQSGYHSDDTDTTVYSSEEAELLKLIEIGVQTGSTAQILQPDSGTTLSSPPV

Regarding `CCOc1cc2nccc(Oc3ccc(NC(=O)c4c(OCC)ccn(-c5ccc(F)cc5)c4=O)cc3F)c2c2c1OCCO2` [Example 62, N-(4-((5-ethoxy-2,3-dihydro-[1,4]dioxino[2,3-f]quinolin-10-yl)oxy)-3-fluorophenyl)-4-ethoxy-1-(4-fluorophenyl)-2-oxo-1,2-dihydropyridine-3-carboxamide], the 50% inhibitory concentration (IC50) in assay [1], in assay [2] and in assay [3] was no more than 50 nM throughout.
For the molecule `CCOc1ccn(-c2ccc(F)cc2)c(=O)c1C(=O)Nc1ccc(Oc2ccnc3cc(OCCCN(C)C4CCC4)c4c(c23)OCCO4)c(F)c1` [Example 71, N-(4-((5-(3-(cyclobutyl(methyl)amino)propoxy)-2,3-dihydro-[1,4]dioxino[2,3-f]quinolin-10-yl)oxy)-3-fluorophenyl)-4-ethoxy-1-(4-fluorophenyl)-2-oxo-1,2-dihydropyridine-3-carboxamide], the half-inhibitory concentration (IC50) in assay [1], in assay [2] and in assay [3] was no more than 50 nM each time.
`CCOc1ccn(-c2ccc(F)cc2)c(=O)c1C(=O)Nc1ccc(Oc2ccnc3cc(OCCCN4CCC(C)(O)CC4)c4c(c23)OCCO4)c(F)c1` [Example 69, N-(4-((5-(3-(4-hydroxy-4-methylpiperidin-1-yl)propoxy)-2,3-dihydro-[1,4]dioxino[2,3-f]quinolin-10-yl)oxy)-3-fluorophenyl)-4-ethoxy-1-(4-fluorophenyl)-2-oxo-1,2-dihydropyridine-3-carboxamide]: the half-maximal inhibitory concentration (IC50) is 50 to 200 nM in assay [1], no more than 50 nM in assay [2] and no more than 50 nM in assay [3].
As to `CCOc1cn(-c2ccc(F)cc2C)nc1C(=O)Nc1ccc(Oc2ncnc3cc(OCCCN4CCOCC4)c4c(c23)OCCO4)c(F)c1` [Example 12, 1-(4-fluoro-2-methylphenyl)-N-(3-fluoro-4-((5-(3-morpholinopropoxy)-2,3-dihydro-[1,4]dioxino[2,3-f]quinazolin-10-yl)oxy)phenyl)-4-ethoxy-1H-pyrazole-3-carboxamide], the half-inhibitory concentration (IC50) in assay [1] is 50 to 200 nM; in assay [2] it was 500 to 5000 nM; in assay [3] it was 50 to 500 nM.
As to `CN1CCN(CCCOc2cc3nccc(Oc4ccc(NC(=O)c5cn(C)c(=O)n(-c6ccc(F)cc6)c5=O)cc4F)c3c3c2OCCO3)CC1` [Example 74, N-(3-fluoro-4-((5-(3-(4-methylpiperazin-1-yl)propoxy)-2,3-dihydro-[1,4]dioxino[2,3-f]quinolin-10-yl)oxy)phenyl)-3-(4-fluorophenyl)-1-methyl-2,4-dioxo-1,2,3,4-tetrahydropyrimidine-5-carboxamide], the IC50 in assay [1] is 50 to 200 nM; in assay [2], no more than 50 nM; in assay [3], no more than 50 nM.
As for `CCOc1ccn(-c2ccc(F)cc2)c(=O)c1C(=O)Nc1ccc(Oc2ncnc3cc(OC)c4c(c23)OCCO4)c(F)c1` [Example 3, N-(3-fluoro-4-((5-methoxy-2,3-dihydro-[1,4]dioxino[2,3-f]quinazolin-10-yl)oxy)phenyl)-1-(4-fluorophenyl)-4-ethoxy-2-oxo-1,2-dihydropyridine-3-carboxamide], the results for the half-inhibitory concentration (IC50) in assay [1], in assay [2] and in assay [3] were 50 to 200 nM, 50 to 500 nM and no more than 50 nM, respectively.
In the case of `CCOc1ccn(-c2ccc(F)cc2)c(=O)c1C(=O)Nc1ccc(Oc2ccnc3cc(OC4COC4)c4c(c23)OCCO4)c(F)c1` [Example 64, N-(4-((5-((oxetan-3-yl)oxy)-2,3-dihydro-[1,4]dioxino[2,3-f]quinolin-10-yl)oxy)-3-fluorophenyl)-4-ethoxy-1-(4-fluorophenyl)-2-oxo-1,2-dihydropyridine-3-carboxamide], the IC50 is 50 to 200 nM in assay [1], 50 to 500 nM in assay [2] and no more than 50 nM in assay [3].
For `COc1cn(-c2ccc(F)cc2C)nc1C(=O)Nc1ccc(Oc2ncnc3cc(OCCCN4CCOCC4)c4c(c23)OCCO4)c(F)c1` [Example 11, 1-(4-fluoro-2-methylphenyl)-N-(3-fluoro-4-((5-(3-morpholinopropoxy)-2,3-dihydro-[1,4]dioxino[2,3-f]quinazolin-10-yl)oxy)phenyl)-4-methoxy-1H-pyrazole-3-carboxamide], the IC50 is 200 to 1000 nM in assay [1], 50 to 500 nM in assay [2] and 50 to 500 nM in assay [3].
Turning to `CCOc1ccn(-c2ccc(F)cc2)c(=O)c1C(=O)Nc1ccc(Oc2ccnc3cc(OCCCOC)c4c(c23)OCCO4)c(F)c1` [Example 55, N-(4-((5-(3-methoxypropoxy)-2,3-dihydro-[1,4]dioxino[2,3-f]quinolin-10-yl)oxy)-3-fluorophenyl)-4-ethoxy-1-(4-fluorophenyl)-2-oxo-1,2-dihydropyridine-3-carboxamide], the half-inhibitory concentration (IC50) is no more than 50 nM in assay [1], 50 to 500 nM in assay [2] and no more than 50 nM in assay [3].
Turning to `CCOc1ccn(-c2ccc(F)cc2)c(=O)c1C(=O)Nc1ccc(Oc2ccnc3cc(OCCCN4CCCC4)c4c(c23)OCCO4)c(F)c1` [Example 52, N-(4-((5-(3-(pyrrolidin-1-yl)propoxy)-2,3-dihydro-[1,4]dioxino[2,3-f]quinolin-10-yl)oxy)-3-fluorophenyl)-4-ethoxy-1-(4-fluorophenyl)-2-oxo-1,2-dihydropyridine-3-carboxamide], the concentration for half-maximal inhibition (IC50) in assay [1], in assay [2] and in assay [3] was no more than 50 nM each time.
With `COc1cc2ncnc(Oc3ccc(NC(=O)c4cccn(-c5ccc(F)cc5)c4=O)cc3F)c2c2c1OCCO2` [Example 1, N-(3-fluoro-4-((5-methoxy-2,3-dihydro-[1,4]dioxino[2,3-f]quinazolin-10-yl)oxy)phenyl)-1-(4-fluorophenyl)-2-oxo-1,2-dihydropyridine-3-carboxamide], the IC50 in assay [1], in assay [2] and in assay [3] was no more than 50 nM each time.
Regarding `CCOc1ccn(-c2ccc(F)cc2)c(=O)c1C(=O)Nc1ccc(Oc2ccnc3cc(OCCCO)c4c(c23)OCCO4)c(F)c1` [Example 54, N-(4-((5-(3-hydroxypropoxy)-2,3-dihydro-[1,4]dioxino[2,3-f]quinolin-10-yl)oxy)-3-fluorophenyl)-4-ethoxy-1-(4-fluorophenyl)-2-oxo-1,2-dihydropyridine-3-carboxamide], the IC50 in assay [1], in assay [2] and in assay [3] was no more than 50 nM throughout.
